Measured values from patent EP3383875B1, “3-PYRIMIDINYL PYRROLO [2,3-B] PYRIDINE AS ANTICANCER AGENTS AND THE PROCESS FOR THE PREPARATION THEREOF” (Council Of Scientific & Industrial Research, priority 2015, dated 2017).
Read-outs that look alike come from different tables or passages of the source.

Experiments:
CDK-2/cyclin A = CDK-2/cyclin A (Homo sapiens, UniProt P24941); test: CDK inhibition assay, CDK-2/cyclin A against Histone HI, 33P-ATP; format: biochemical; conditions: at 500 nM
Procedure, shortened: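 CDK-2/cyclin A (5-20 mU) phosphorylating Histone HI (1 mg/ml) in 50 mM Hepes pH 7.5, 100 mM NaCl, 10 mM Mg acetate, 0.02 mM [33P-γ-ATP], 30 min at room temperature. Stopped with orthophosphoric acid, captured on P81 filters for radiometric readout.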

CDK-9/Cyclin T1 = CDK-9/Cyclin T1 (Homo sapiens, UniProt P50750); test: CDK inhibition assay, CDK-9/Cyclin T1 against substrate peptide, 33P-ATP; format: biochemical; conditions: at 500 nM
Procedure: (50-1000 cpm/pmole) and incubated for 30 min at room temperature. Assays were stopped by addition of 5 µl of 0.5 M (3%) orthophosphoric acid and then harvested onto P81 Unifilter plates with a wash buffer of 50 mM orthophosphoric acid.

MCF-7 = test: MTT assay on cancer cell line MCF-7; format: cell-based, Human; conditions: Homo sapiens
Procedure: (§1) Cell culture, growth conditions and treatments. […] Different molecules were dissolved in DMSO and were delivered to cell cultures in complete medium.

PC-3 = test: MTT assay on cancer cell line PC-3; format: cell-based, human; conditions: Homo sapiens, Table 8, read-out: In vitro cell inhibition, % of inhibition, PC-3
Procedure: as §1

MDA-MB435 = test: MTT assay on cancer cell line MDA-MB435; format: cell-based, Human; conditions: Homo sapiens, MDA-MB-435
Procedure: as §1

HCT-116 = test: MTT assay on cancer cell line HCT-116; format: cell-based, human; conditions: Homo sapiens
Procedure: as §1

SHSY-5Y = test: MTT assay on cancer cell line SHSY-5Y; format: cell-based, human; conditions: Homo sapiens, SH-SY5Y
Procedure: as §1

[1] = Table-6, read-out: In vitro CDK2 % of inhibition
[2] = read-out: inhibition against CDK2
[3] = Table-6, read-out: In vitro CDK9 % of inhibition
[4] = read-out: inhibition against CDK9
[5] = MCF7, MCF-7, Table 8, read-out: In vitro cell inhibition, % of inhibition, MCF-7
[6] = MCF7, read-out: inhibition against MCF-7 cell lines
[7] = MDA-MB435, at 10µM, Table 8, read-out: In vitro cell inhibition, % of inhibition, MDA-MB435
[8] = at 10µM, Table 8, read-out: In vitro cell inhibition, % of inhibition, HCT-116
[9] = SHSY-5Y, Table 8, read-out: In vitro cell inhibition, % of inhibition, SHSY-5Y

Chain of CDK-9/Cyclin T1 (P50750 whole entry): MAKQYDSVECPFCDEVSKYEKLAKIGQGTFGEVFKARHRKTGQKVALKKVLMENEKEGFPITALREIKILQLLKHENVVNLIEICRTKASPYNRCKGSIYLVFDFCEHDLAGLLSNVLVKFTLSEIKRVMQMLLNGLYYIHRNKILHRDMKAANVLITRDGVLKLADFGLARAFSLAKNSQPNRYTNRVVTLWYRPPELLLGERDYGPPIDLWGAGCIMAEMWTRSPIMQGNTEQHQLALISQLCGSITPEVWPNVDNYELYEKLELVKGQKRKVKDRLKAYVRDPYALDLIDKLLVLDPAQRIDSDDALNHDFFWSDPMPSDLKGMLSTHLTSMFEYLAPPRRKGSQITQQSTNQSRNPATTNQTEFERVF
Chain of CDK-9/Cyclin T1 (O60563 whole entry partner): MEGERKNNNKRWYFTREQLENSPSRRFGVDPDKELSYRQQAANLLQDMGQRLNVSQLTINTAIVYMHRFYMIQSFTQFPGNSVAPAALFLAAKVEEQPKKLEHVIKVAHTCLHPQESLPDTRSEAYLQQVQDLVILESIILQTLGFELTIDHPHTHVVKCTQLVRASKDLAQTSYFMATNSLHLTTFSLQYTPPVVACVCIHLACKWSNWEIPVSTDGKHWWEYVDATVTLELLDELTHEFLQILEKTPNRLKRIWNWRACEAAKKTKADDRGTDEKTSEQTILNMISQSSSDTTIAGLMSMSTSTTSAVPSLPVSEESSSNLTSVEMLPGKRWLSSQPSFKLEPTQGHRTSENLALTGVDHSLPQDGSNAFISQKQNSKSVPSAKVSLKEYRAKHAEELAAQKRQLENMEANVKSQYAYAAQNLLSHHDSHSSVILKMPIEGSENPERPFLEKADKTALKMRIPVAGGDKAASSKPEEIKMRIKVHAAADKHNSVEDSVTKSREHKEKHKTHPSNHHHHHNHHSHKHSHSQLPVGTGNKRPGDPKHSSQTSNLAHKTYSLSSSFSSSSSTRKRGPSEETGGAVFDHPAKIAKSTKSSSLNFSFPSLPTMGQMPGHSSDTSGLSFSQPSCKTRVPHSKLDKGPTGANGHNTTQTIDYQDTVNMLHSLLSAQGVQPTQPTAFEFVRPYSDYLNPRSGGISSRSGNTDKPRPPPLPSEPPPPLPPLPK

Row | inhibition at 0.5 µM (CDK-2/cyclin A; [1]) [%] | inhibition at 0.5 µM (CDK-2/cyclin A; [2]) [%] | inhibition at 0.5 µM (CDK-9/Cyclin T1; [3]) [%] | inhibition at 0.5 µM (CDK-9/Cyclin T1; [4]) [%] | SMILES | inhibition at 10 µM (MCF-7; [5]) [%] | inhibition at 10 µM (MCF-7; [6]) [%] | inhibition at 10 µM (PC-3) [%] | inhibition at 10 µM (MDA-MB435; [7]) [%] | inhibition at 10 µM (MDA-MB435; at 10 µM, read-out: inhibition against MDAMB-435 cell lines) [%] | inhibition at 10 µM (HCT-116; [8]) [%] | inhibition at 10 µM (HCT-116; at 10 µM, read-out: inhibition against HCT-116 cell lines) [%] | inhibition at 10 µM (SHSY-5Y; [9]) [%] | inhibition at 10 µM (SHSY-5Y; read-out: inhibition against SHSY-5Y cell lines) [%]
1 | > 70 | > 70 | > 70 | > 70 | Fc1cccc(-c2cnc3[nH]cc(-c4ccnc(NC5CC5)n4)c3c2)c1 [1A5, N-cyclopropyl-4-(5-(3-fluorophenyl)-1H-pyrrolo[2,3-b]pyridin-3-yl)pyrimidin-2-amine] | > 70 | > 70 | > 70 | > 70 | > 70 | > 70 | > 70 | > 70 | > 70
2 | > 70 | > 70 | > 70 | > 70 | c1cc(-c2c[nH]c3ncc(-c4ccoc4)cc23)nc(NC2CC2)n1 [1A16, N-cyclopropyl-4-(5-(furan-3-yl)-1H-pyrrolo[2,3-b]pyridin-3-yl)pyrimidin-2-amine] | > 50 | > 50 | > 70 | > 70 |  | > 70 |  | > 50 | 
